Measurements published in patent publication US9296778B2, “3′,5′-cyclic phosphate prodrugs for HCV infection” (Idenix Pharmaceuticals, Inc., priority 2012, dated 2016).
Read-outs that look alike come from different tables or passages of the source.

Columns and labels:
[1] = Stability in fresh human whole blood; format: in vitro ADME; settings: 0.5 μM, percent unchanged test compound
Summary of the method: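 Test compound at 0.5 μM was incubated at 37 °C in fresh human K2EDTA whole blood, stored at 2–8 °C and used within 7 days, in triplicate. Samples taken at 0, 0.5, 1 and 2 h were quenched in cold acetonitrile containing internal standard and analysed by LC-MS/MS. Percent unchanged compound was derived from peak-area ratios.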

[2] = tested on: HCV genotype 1b replicon; experiment: HCV Replicon Assay; format: cell-based; settings: Zluc cells (Huh-7-derived, HCV genotype 1b replicon, luciferase reporter), 72 hours; read-out: HCV Replicon EC50
Summary of the method: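 Zluc Huh-7 cells with HCV genotype 1b replicon and luciferase reporter treated with 5-fold dilutions (100 μM to 0.0000512 μM final) in duplicate, or at 1 and 10 μM. Luminescence read with ONE-glo; EC50 from dose-response fits, or % inhibition at the fixed concentrations.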

[3] = Stability in simulated intestinal fluid; format: in vitro ADME; settings: 100 μM, 2 hours at 37° C., percent of the peak area at time zero
Summary of the method: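 Compounds at 100 μM final, in duplicate, kept 2 h at 37° C in USP gastric fluid (pepsin) or intestinal fluid (pancreatin). Quenched with cold acetonitrile, supernatant analysed by C-18 HPLC, UV 252 nm. Remaining compound expressed as percent of time-zero peak area.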

[4] = Stability in mouse blood; format: in vitro ADME; settings: on ice, percent unchanged test compound
Summary of the method: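 Test compound at 0.5 μM final in whole blood, held on ice; sampled at 0, 0.5 and 1 hr in triplicate. Samples quenched with acetonitrile containing internal standard and analysed by LC-MS/MS; percent unchanged compound from peak area ratio to internal standard.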

[5] = Stability in simulated gastric fluid; format: in vitro ADME; settings: 100 μM, 2 hours at 37° C., percent of the peak area at time zero
Method: Simulated gastric and intestinal fluids containing pepsin and pancreatin respectively were prepared according to the U.S. Pharmacopoeia USP291 procedure (www.pharmacopeia.cn/v29240/usp29nf24s0_ris1s126.html). Compounds (final concentration 100 μM) were incubated in duplicate in the appropriate fluid for 2 hours at 37° C. The samples were quenched with 200 μl cold acetonitrile, vortexed for 30 seconds and then centrifuged at 16,100 g for 10 min. The supernatants were analyzed by HPLC on a C-18 column with UV detection at 252 nm. The time 0 samples were prepared by adding SGF or SIF fluid to the quenching solvent followed by the test compound. Stability of the compounds was determined by peak area of the test compounds after incubation and calculated as percent of the peak area observed at time zero.

[6] = tested on: fresh human hepatocytes; experiment: Release of active metabolite in fresh human hepatocytes; format: in vitro ADME; settings: 10 μM compound; for FHH TP Cmax: fresh human hepatocytes; for FHH TP AUC: fresh human hepatocytes, 6, 24 and 48 hours
Summary of the method: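 Overnight-acclimatized hepatocytes (0.8 million cells/well human, 0.5 million mouse) incubated at 37 °C with 10 μM test compound (0.1% DMSO). Sampled at 6, 24, 48 h (human) or 1, 4, 8, 12, 24 h (mouse); cells washed, extracted in cold 70% methanol, intracellular content quantified by LC-MS/MS with internal standard.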

[7] = tested on: Zluc cells; experiment: cytotoxicity evaluation (CellTiter-Blue Cell Viability Assay); settings: read-out: HCV Replicon CC50; Zluc cells, CellTiter-Blue
[8] = Stability in liver subcellular fractions (microsomes); format: in vitro ADME, human; settings: 10 μM, 1.0 mg/mL microsomal protein, NADPH, 60 min, percent unchanged test compound
Method: Stability of compounds were determined in subcellular fractions (microsomes) of human liver in duplicate for each matrix. Pooled liver microsomal proteins (1.0 mg/mL), suspended in incubation buffer (100 mM potassium phosphate, pH 7.4, 5 mM MgCl2, and 0.1 mM EDTA), were preincubated for 5 min at 37° C. with 10 μM of a test compound from a 10 mM stock solution in DMSO (final DMSO concentration was 0.1%); the reaction was initiated by the addition of NADPH (3 mM final concentration). At specific times (0 and 60 min), 0.1 mL samples were taken and the reaction terminated by the addition of 4 volumes of stop solution (acetonitrile with 500 ng/mL carbutamide as an internal standard). The samples were vortexed for 30 sec and then centrifuged at 16,000 g for 10 min. 100 μL of supernatants were transferred to 96 deep-well plates preloaded with 100 μL distilled water and analyzed after mixing by LC-MS/MS. The MS peak area ratio of the test compounds versus the internal standard was calculated and percent unchanged test compound over 60 minutes was calculated using this ratio.

[9] = tested on: Zluc cells
[10] = tested on: genotype 1b HCV replicon; experiment: genotype 1b HCV replicon-bearing Huh-7 cells (Table 5); format: cell-based; settings: Hepatitis C virus
From the text: In vivo Z4 and Z2 appear to be effectively liver-targeted with a high liver:plasma ratio of drug metabolites. Both prodrugs are readily converted to the triphosphate (TP) metabolite in the liver of mice and monkey producing more TP than GS-7977. […] The in vitro antiviral inactivity of Z4 and Z2 is thought to reflect an inability of Huh-7 replicon cells to metabolize the prodrug moiety.

[11] = molecular target: T1, carboxylesterase 1 (CES1) (Homo sapiens, UniProt P23141); experiment: CES1 hydrolysis assay; format: in vitro ADME; settings: for CES1 hydrolysis: 100 μM compound, 37° C.
T1 construct: purchased R & D Systems (Minneapolis, Minn.)
T1 sequence (P23141 18-567): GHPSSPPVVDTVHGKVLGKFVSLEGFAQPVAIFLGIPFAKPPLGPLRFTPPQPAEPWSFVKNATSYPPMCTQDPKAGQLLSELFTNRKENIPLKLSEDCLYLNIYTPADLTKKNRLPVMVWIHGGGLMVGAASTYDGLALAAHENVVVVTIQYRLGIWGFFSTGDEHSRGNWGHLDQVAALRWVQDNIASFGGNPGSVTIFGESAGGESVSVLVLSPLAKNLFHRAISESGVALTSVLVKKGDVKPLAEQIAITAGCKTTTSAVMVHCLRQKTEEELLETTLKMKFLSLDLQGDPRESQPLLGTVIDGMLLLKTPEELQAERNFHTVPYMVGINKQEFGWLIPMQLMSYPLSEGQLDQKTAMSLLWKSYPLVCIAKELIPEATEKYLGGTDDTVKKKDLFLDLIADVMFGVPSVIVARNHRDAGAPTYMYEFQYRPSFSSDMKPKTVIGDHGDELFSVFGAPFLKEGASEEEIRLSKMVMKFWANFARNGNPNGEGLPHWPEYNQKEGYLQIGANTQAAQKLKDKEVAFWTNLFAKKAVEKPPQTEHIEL
Method: CES1 assay was performed at 37° C. in the reaction mixture containing 50 mM Tris/HCl buffer pH 7.5 and 100 μM of the compound. Reaction was started by addition of the CES1 to the final concentration 0.01 μg/mL. 100 μL aliquots were taken after 0.5 min, 3 hrs and 21 hrs of the incubation and the reaction was stopped by mixing with 100 μl of the ice-cold methanol prior to HPLC analysis.
(§1) Samples were analyzed by HPLC using 5μ C-18, 4.6×250 mm Phenomenex® Columbus column (Phenomenex USA, CA). The mobile phase consisted of buffer A (25 mM potassium phosphate with 5 mM tetrabutylammonium dihydrogen phosphate pH 6.3) and buffer B (100% methanol).

[12] = molecular target: T2, cathepsin A (CatA) (Homo sapiens, UniProt P10619); experiment: CatA hydrolysis assay; format: in vitro ADME
T2 construct: purchased R & D Systems (Minneapolis, Minn.)
T2 sequence (P10619 29-326 limits assumed): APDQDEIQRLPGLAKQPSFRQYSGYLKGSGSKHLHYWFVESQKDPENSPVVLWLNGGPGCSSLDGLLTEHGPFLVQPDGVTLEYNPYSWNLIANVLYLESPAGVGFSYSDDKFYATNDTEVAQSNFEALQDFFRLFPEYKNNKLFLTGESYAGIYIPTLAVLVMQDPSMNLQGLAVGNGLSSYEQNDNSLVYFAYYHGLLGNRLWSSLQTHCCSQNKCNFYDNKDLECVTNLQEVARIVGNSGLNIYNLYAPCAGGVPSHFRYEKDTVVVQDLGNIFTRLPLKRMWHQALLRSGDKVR
T2 sequence (P10619 327-480 limits assumed): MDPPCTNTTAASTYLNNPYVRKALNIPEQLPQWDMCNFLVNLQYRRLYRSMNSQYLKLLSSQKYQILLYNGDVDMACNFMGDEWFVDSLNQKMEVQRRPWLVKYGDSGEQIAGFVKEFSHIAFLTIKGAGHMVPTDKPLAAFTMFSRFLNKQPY
Method: CatA, cathepsin L (CatL) and CES1 were purchased from R & D Systems (Minneapolis, Minn.). Prior to the enzymatic hydrolysis reactions, CatA was activated according to the manufacturer's instruction. Briefly, CatA (0.05 μg/μL) was incubated with CatL (0.005 μg/μL) for 30 min at 37° C. in 25 mM MES pH 6.0 containing 5 mM DTT. The reaction was stopped by addition of the CatL specific inhibitor E64 (10 μM).
The CatA assay was performed at 37° C. The reaction mixture contained 25 mM MES buffer pH 6.0, 100 mM NaCl, 4 mM DTT and 100 μM of the compound. The reaction was started by addition of the activated CatA enzyme to a final concentration of 0.005 μg/μL. One hundred-μL aliquots were taken after 0.5 min, 3 hrs and 18 hrs of incubation. Reactions were stopped by mixing the sample with an equal volume of ice-cold methanol, and were loaded on a HPLC for analysis.
as §1

[13] = tested on: Huh-7 cells; experiment: Release of active metabolite in Huh-7 cells; format: in vitro ADME, human; settings: Huh-7 cells, AUC0-72
Method: Huh-7 cells were plated in 1 mL culture medium (DMEM, containing glucose, L-glutamine and sodium pyruvate, 10% FBS, 100 IU/mL penicillin, 100 μg/mL streptomycin, 2 mM GlutaMAX, 1% MEM non-essential amino acids) at the concentration 0.8, 0.4 and 0.2 million cells per well on 6 well plates for 24, 48 and 72 hr treatment, respectively. Plated cells were incubated overnight at 37° C. in an incubator.
The following morning compounds was diluted to 20 μM from a stock solution in DMSO in fresh culture medium pre-warmed to 37° C. and 1 mL of the solution/well was added to cells. A final medium volume per well was 2.0 mL, Compound concentration in well was 10 μM and final DMSO concentration was 0.1%.
After 24, 48 or 72 hr, the medium was carefully removed and cell monolayers were washed twice with 2 mL ice-cold PBS per well. Following the last wash, all PBS was carefully removed and 1.0 mL of extraction solution (ice-cold 70% methanol) added. The plate was tightly covered with Parafilm, plastic plate cover and Parafilm again and an intracellular content was extracted at −20° C. for 24 hr.
After 24 hr extracts were transferred into polypropylene microfuge tubes and dried on a refrigerated centrivap concentrator. Dry residues were reconstituted in 250 μL of HPLC-grade water and centrifuged at 16,000×g for 10 min. Aliquots (100 μL each) of the supernatants were transferred into a 96 well plate and internal standard (4 ng/mL final concentration) was added as the internal standard (IS) for LC-MS/MS analysis.

## CCOC(=O)COP1(=O)OC[C@H]2O[C@@H](n3cnc4c(OCC)nc(N)nc43)[C@](C)(F)[C@@H]2O1 (single isomer, unassigned; diastereomer 1) [Compound 7 Diastereomer 1]
[1]
  Stability WB_Human (37° C.; 2 hr): 25%
[2]
  EC50: < 250 nM
[3]
  Stability SIF: 50%
[4]
  Stability WB_Mouse (ice; 1 hr): 1%
[5]
  Stability SGF: 87%
[6]
  FHH TP Cmax: 31 pmol/mill cells
  FHH TP AUC: 377 pmol · hr/mill cells
[7]
  CC50: > 50000 nM
[8]
  Stability HLM (1 hr): 0.5%

## CCOc1nc(N)nc2c1ncn2C1OC2COP(=O)(OCC(NC(=O)OC)C(C)(C)C)OC2C1(C)F (single isomer, unassigned; diastereomer 1) [Compound 10 Diastereomer 1]
[2]
  EC50: 250 to 1000 nM
[9]
  CC50: > 50000 nM

## CCOc1nc(N)nc2c1ncn2C1OC2COP(=O)(Oc3ccc(CC(NC(=O)OC)C(=O)OC(C)C)cc3)OC2C1(C)F (single isomer, unassigned; diastereomer 1) [Compound 13 Diastereomer 1]
[1]
  Stability WB_Human (37° C.; 2 hr): 29%
[2]
  EC50: < 250 nM
[3]
  Stability SIF: 72%
[4]
  Stability WB_Mouse (ice; 1 hr): 1%
[6]
  FHH TP Cmax: 44 pmol/mill cells
  FHH TP AUC: 1632 pmol · hr/mill cells
[7]
  CC50: > 50000 nM
[8]
  Stability HLM (1 hr): 0.4%

## CCOc1nc(N)nc2c1ncn2[C@@H]1O[C@@H]2COP(=O)(OCCSSC(C)(C)C)O[C@H]2[C@@]1(C)O (single isomer, unassigned; diastereomer 1) [Compound 23 Diastereomer 1]
[2]
  EC50: < 250 nM
[9]
  CC50: < 50000 nM

## CCOc1nc(N)nc2c1ncn2[C@@H]1O[C@@H]2COP(=O)(OCCSC(=O)C(C)(C)CO)O[C@H]2[C@@]1(C)OC(C)=O (single isomer, unassigned; diastereomer 2) [Compound 16 Diastereomer 2]
[2]
  EC50: < 250 nM
[9]
  CC50: < 50000 nM

## CC(C)OC(=O)[C@H](C)N[P@](=O)(OC[C@H]1O[C@@H](n2ccc(=O)[nH]c2=O)[C@](C)(F)[C@@H]1O)Oc1ccccc1 [GS-7977]
[10]
  EC50: 250 nM
[11]
  hydrolysis by CES1 (in words): hydrolyzed
[11]; 3 h
  CES1 hydrolysis: 12%/3 h;
[11]; 21 h
  CES1 hydrolysis: 15%/21 h
[12]
  hydrolysis by CatA (in words): hydrolyzed
[12]; 100 μM compound, 37° C., 18 h
  CatA hydrolysis: 100% @ 18 h
[12]; GS-7977 (SP) versus its RP diastereoisomer
  CatA cleavage efficiency relative to RP diastereoisomer: 10 times
[13]
  Huh-7 AUC0-72: 63555 pmol * hr/10^6cells

## CC(C)OC(=O)[C@H](C)N[P@@](=O)(OC[C@H]1O[C@@H](n2ccc(=O)[nH]c2=O)[C@](C)(F)[C@@H]1O)Oc1ccccc1 [PSI-7076]
[11]
  hydrolysis by CES1 (in words): hydrolyzed
[12]
  hydrolysis by CatA (in words): hydrolyzed
